# Laboratory results taken from patent publication US9315484B2, “Mitochondrial aldehyde dehydrogenase-2 modulators and methods of use thereof” (The Board of Trustees of the Leland Stanford Junior …, priority 2007, dated 2016).
# Changes are numbered by the printed parent chain. pIC50: −log10 of the molar value.
# Key:
# ALDH2*1 wild type enzyme = molecular target: T1, ALDH2*1 wild type enzyme (Homo sapiens, UniProt P05091); assay: ALDH2 enzymatic assay, ALDH2*1 recombinant enzyme; format: biochemical; settings: for increase in activity of ALDH2*1 wild type enzyme: at the higher concentration (range 10-200 μM), n=3; for ALDH2 activation, dose dependence: range of 10-200 μM
# T1 sequence (P05091 18-517): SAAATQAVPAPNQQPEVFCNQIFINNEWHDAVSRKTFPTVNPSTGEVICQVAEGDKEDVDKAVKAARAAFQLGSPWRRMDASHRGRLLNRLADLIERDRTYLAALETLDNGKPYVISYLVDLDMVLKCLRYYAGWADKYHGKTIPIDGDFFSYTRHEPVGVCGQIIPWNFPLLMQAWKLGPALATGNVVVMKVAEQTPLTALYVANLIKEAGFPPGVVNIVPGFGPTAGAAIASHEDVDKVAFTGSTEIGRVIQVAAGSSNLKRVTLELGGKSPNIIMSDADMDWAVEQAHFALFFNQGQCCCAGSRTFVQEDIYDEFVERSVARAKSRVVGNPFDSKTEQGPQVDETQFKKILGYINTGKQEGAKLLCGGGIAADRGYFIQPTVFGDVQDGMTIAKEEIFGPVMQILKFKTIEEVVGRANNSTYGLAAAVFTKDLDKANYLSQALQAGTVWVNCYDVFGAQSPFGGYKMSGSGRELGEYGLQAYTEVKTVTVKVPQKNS
# Description: (§1) BDDB derivative compounds, XO43 and XO44 as depicted in FIG. 12, were synthesized and tested in ALDH2 enzymatic assays. […] Enzymatic activity was measured by a reductive reaction of NAD^+ to NADH at 340 nm, as described in US 2005/0171043; and WO 2005/057213. […] (FIG. 12: n=3 for both right and left panels.)
# ALDH2*2 mutant enzyme = molecular target: T2, ALDH2*2 mutant enzyme (Homo sapiens, UniProt P05091, E504K); assay: ALDH2 enzymatic assay, ALDH2*2 recombinant enzyme; format: biochemical; settings: range of 10-200 μM
# T2 sequence (P05091 18-517 E504K): T1 sequence (P05091 18-517) with E487K
# Description: as §1
# [1] = molecular target: T3, E487K variant of human ALDH2 (Homo sapiens, UniProt P05091, E504K); assay: Enzymatic activity of histidine-tagged E487K ALDH2 variant (NAD+ to NADH, acetaldehyde substrate); format: biochemical; settings: over control (without activator compound) activity; n=3
# T3 construct: made in house; host or cells: E. coli
# T3 sequence (P05091 18-517 E504K): T1 sequence (P05091 18-517) with E487K
# Description: (§2) Compounds were screened using a method as depicted schematically in FIG. 2. Essentially, the reaction is carried out at 25° C. in 0.1 NaPPi buffer, pH 9.5, 2.4 mM NAD^+ and 10 mM acetaldehyde as the substrate. Enzymatic activity is measured by a reductive reaction of NAD^+ to NADH at 340 nm. Alternatively, the production of NADH can be coupled with another enzymatic reaction that consumes NADH and that provides for a detectable signal. An example of such an enzymatic reaction is a diaphorase-based reaction, which reduces resazurin to its […] fluorescent compound resorufin.
# For example, a 120 μl reaction mixture for ALDH2 enzymatic activity comprises the following components:
# 43 μl 150 mM sodium pyrophosphate (NaPPi) buffer, pH 9.0;
# 15 μl 80 mM acetaldehyde;
# 1 μl of resazurin (0.2 mg/ml in H2O);
# 1 μl of diaphorase (1 unit, e.g., from Clostridium kluyveri);
# 2 μl of variant ALDH2 (e.g., 2 μl of variant ALDH2 at (0.5-2 μg/μl); and
# 28 μl of a solution comprising an agent to be tested, which agent has been resuspended in an appropriate solvent (e.g., an aqueous solution, DMSO, and the like).
# Fluorescent detection of the above-described reaction as described in Table 1:
# A fusion protein that includes the E487K variant of human ALDH2 (see amino acid sequence depicted in FIG. 1B) and a poly-histidine tag was synthesized and used in screens for ALDH2 agonists. An expression construct that encodes the […] variant fused in-frame to a poly-histidine (His) tag was introduced into E. coli, and expression was induced by the addition of isopropyl-1-thio-3-D-galactoside (IPTG); and His-tagged E487K ALDH2 variant was produced. The His-tagged E487K ALDH2 variant was purified from E. coli extract using a metal ion affinity column to bind the His-tagged E487K ALDH2 variant. His-tagged E487K ALDH2 variant was eluted from the column and used in screening assays to identify ALDH2 agonists.
# rat hearts = assay: Ex vivo Langendorff model of myocardial infarction (no-flow ischemia and reperfusion); settings: ex vivo rat heart
# Description: Ex vivo Langendorff preparations of rat hearts were used as a model to assess the damage incurred by no-flow ischemia and reperfusion injury. This is an experimental model that mimics the clinical situation of myocardial infarction in patients. Rat hearts were excised and cannulated on a Langendorff apparatus via the aorta. Retrograde perfusion was carried out using the standard oxygenated Kreb-Hensleit buffer maintained at 37° C. All hearts were stabilized by an initial 5- to 10-minute perfusion period followed by delivery of different cardioprotective agents or AldDH2 inhibitors for 10-30 minutes, depending on the reagent. Reagents used in some of the representative experiments including ethanol (50 mM), EPKC isozyme-selective activator and inhibitor peptides (1 μM), cyanamide (5 mM) and nitroglycerin (2 μM). […]
# The degree of ischemia/reperfusion damage was measured by two independent commonly accepted parameters. […] In another assay, creatine phosphate kinase activity was measured from reperfusate of each heart collected during reperfusion. […] Homogenates from each heart was also obtained from a separate section of the identical sample and analyzed for aldehyde dehydrogenase enzymatic activity. Enzymatic activity was determined by a standard spectrophotometric method described above using acetaldehyde as the substrate and NAD^+ as a cofactor.
# Male Wistar rats = assay: In vivo LAD coronary artery ligation ischemia/reperfusion model; set-up: species or system rat; settings: 8.5 mg/kg into the left ventricle five minutes before LAD ligation, p<0.01
# Description: Male Wistar rats (250-300 g) were anesthetized by 3% isoflurane. The surgical procedures used for left anterior descending coronary artery (LAD) ligation are based on published protocols Animals were intubated, and ventilated with a Harvard rodent ventilator at a rate of 80 breaths per minute (5-15 mm Hg). Maintenance anesthesia was provided via 1% inhalational isoflurane, and body temperature was maintained at 37° C. using a rectal probe linked to a thermocoupled thermometer and an appropriate heating blanket. The heart was exposed by median sternotomy. Following a 20-minute period of stabilization, a ligature was placed around the LAD coronary artery, close to its origin from the aortic root. The ends of the ligature were passed through polyethylene tubing forming a small noose in which a syringe plunger was rested upon the myocardial surface. Coronary occlusion was achieved by pressing the tubing against the plunger while pulling on the ligature followed by clamping the tubing with a hemostat. Occlusion was determined by observation of immediate pallor of the left ventricular free wall. Reflow was achieved by release of the ligature. […]
# At the end of reperfusion, hearts were excised and flushed with 0.9% saline. […] Serum was separated by centrifugation at 5000 g for 5 minutes on a tabletop centrifuge and creatine phosphate kinase (CPK) values were determined.
# "wild-type" ALDH2 enzyme = molecular target: T4, "wild-type" ALDH2 enzyme (Homo sapiens, UniProt P05091); assay: Screen and inhibition assay with wild-type ALDH2 enzyme; format: biochemical
# T4 sequence (P05091 18-517): T1 sequence (P05091 18-517)
# Description: as §2
# Compounds were screened, as described above, but using the “wild-type” ALDH2 enzyme. Of 63,000 compounds screened, six inhibitors were identified. Three of the compounds, referred to in FIGS. 8, 9, and 10 as #062923, #046072, and #032208, respectively, were assayed for their effect on ALDH2 enzymatic activity.
Compound,increase in activity of ALDH2*1 wild type enzyme (ALDH2*1 wild type enzyme),"ALDH2 activation, dose dependence (ALDH2*1 wild type enzyme)","ALDH2 activation, dose dependence (ALDH2*2 mutant enzyme)",increase of enzymatic activity of the E487K ALDH2 variant over control [1],"pIC50 (""wild-type"" ALDH2 enzyme)",other results
Cc1cccc(C)c1C(=O)NCc1ccc2c(c1)OCO2 [XO44],about 180%,dosage dependent effect,dosage dependent effect,,,
"O=C(NCc1ccc2c(c1)OCO2)c1ccccc1Br [Compound 3, N-(1,3-benzodioxol-5-ylmethyl)-2-bromobenzamide]",,,,~600%,,
"O=C(NCc1ccc2c(c1)OCO2)c1c(Cl)cccc1Cl [Compound 1, N-(1,3-benzodioxol-5-ylmethyl)-2,6-dichlorobenzamide]",about 180%,dosage dependent effect,dosage dependent effect,approximately 900%,,"infarct size (rat hearts; ischemia-reperfusion, control 57.7±5.4%, p<0.05, n=7): 41.6±4.1%; CPK release (rat hearts; reperfusate, control 5530±329, P<0.05, n=8): 4396 Units/Liter; decrease of CPK release (Male Wistar rats; rat blood): about 57%; decrease of the extent of myocardial infarction (Male Wistar rats; rat): about 60%"
COc1ccc(C(=O)CCN(C)C)cc1F [#062923],,,,,6.20,
O=C(NCc1ccc2c(c1)OCO2)c1c(Cl)cncc1Cl [XO43],about 180%,dosage dependent effect,dosage dependent effect,,,
"O=C(NCc1ccc2c(c1)OCO2)c1c(F)cccc1F [Compound 2, N-(1,3-benzodioxol-5-ylmethyl)-2,6-difluorobenzamide]",,,,approximately 300%,,
O=C(Nc1nc2c(Cl)c(Cl)ccc2s1)c1cccnc1 [#032208],,,,,5.79,
"O=C(NCc1ccc2c(c1)OCO2)c1ccccc1I [Compound 4, N-(1,3-benzodioxol-5-ylmethyl)-2-iodobenzamide]",,,,~700%,,
CCc1ccc(C(=O)CCN(C)C)cc1 [#046072],,,,,5.94,
